Results as given in patent US7105307B2, “Compositions and methods for screening for modulators of enzymatic activity” (Cyclacel, Ltd., priority 1997, dated 2006).
Where no end group is shown, it is not given here. rhodamine = not defined here

What was measured:
[1] = tested on: Ca2+/Calmodulin-dependent Protein Kinase (CaMKII); test: Timecourse of phosphorylation by CaMKII (32P-ATP); format: biochemical; conditions: 10% crude CaMKII, 0.5 mM Ca2+, 0.2 mM ATP
Procedure: (§1) A second set of timecourses of phosphorylation was performed on Zip4S using PKA and Ca^2+/Calmodulin-dependent Protein Kinase (CaMKII), together with positive and negative controls for CaMKII (used to confirm that the crude preparation of CaMKII had the expected characteristics of that enzyme). PKA phosphorylation was performed in 50 mM histidine/HCl (pH 7.0), 5 mM MgSO4, 5 mM NaF, 0.05 mM EGTA, 120 mM KCl with 0.2 mM ATP (39.72 cpm/pmol ^32P-ATP) and 0.25 μM PKA. CaMKII phosphorylation was performed in 50 mM histidine/HCl (pH 7.0), 5 mM MgSO4, 5 mM NaF, 120 mM KCl, 0.5 mM Ca^2+, 0.037 mg/ml calmodulin with 0.2 mM ATP (39.72 cpm/pmol ^32P-ATP) and 10% crude CaMKII. In the Ca^2+-free experiment, Ca^2+ was replaced by 0.05 mM EGTA. […] Such specificity of a modification site included in a polypeptide comprising a coiled-coil is critical for use of the invention in an intracellular environment.

PKA [2] = test: Timecourse of phosphorylation of peptides by PKA (32P-ATP); format: biochemical; conditions: 0.2 mM ATP, pH 7.0
Procedure: Peptides (0.01–1.0 μM) are phosphorylated by purified c-PKA in 50 mM Histidine buffer pH 7.0, 5 mM MgSO4, 1 mM EGTA, 0.1–1.0 μM c-PKA, and 0.2 mM [^32P] γ-ATP (specific activity ˜2Bq/pmol) at 30–37° C. for periods of time ranging from 0 to 60 minutes. Where the chemistry of the peptide is appropriate (i.e. having a basic charge) the phosphopeptide is captured on a cation exchange filter paper (e.g. phosphocellulose P81 paper; Whatman), and reactants are removed by extensive washing in 1% phosphoric acid (see Casnellie, 1991, Methods Enzymol., 200: 115–120). Alternatively, phosphorylation of samples is terminated by the addition of SDS-sample buffer (Laemmli, 1970, Nature, 227: 680–685) and the samples analysed by SDS-PAGE electrophoresis, autoradiography and scintillation counting of gel pieces.
A timecourse of phosphorylation of these peptides by PKA was run in 50 mM histidine/HCl (pH 7.0), 5 mM MgSO4, 5 mM NaF, 0.05 mM EGTA, 120 mM KCl with 0.2 mM ATP (30.9 cpm/pmol ^32P-ATP) and 0.5 μM PKA. […] Zip4T is also phosphorylated, but at a slower rate, with full phosphorylation achieved in 30 minutes in this assay. In this assay, the difference in cpm recovered between the Zip4 peptides and PL919Y was due to the difference in recovery of these peptides on P81 paper; however, a plateau was taken to indicate full phosphorylation.
as §1

[3] = Circular dichroism spectra and thermal denaturation of coiled-coil peptides; format: physicochemical
Procedure: The circular dichroism (measured in units of ellipticity) of proteins at 222 nm provides a measure of the amount of α-helix present in the structure, with a large, negative ellipticity indicting a high level of helicity. The coiled-coil has a distinctive α-helical CD spectrum with minima at 222 nm and 208 nm (O'Shea et al., 1989, Science, 243: 538–542). […] In all experiments described herein, peptide concentration was determined by tyrosine absorbance at 280 nm in 6M GuHCl. […] It is clear that this leucine zipper peptide began to unfold at around 35° C. and was completely unfolded by 70° C.
As in Example 1, circular dichroism was used to assess the coiled-coil structure of the Zip4 polypeptides and the disruption of that structure by phosphorylation. […] This was confirmed by the CD spectra of Zip4S and Zip4SP at 1° C. (FIG. 12).
The coiled-coil motif has a characteristic CD spectrum. As described above, measurement of circular dichroism is useful to distinguish monomeric polypeptides from oligomers and to assess the stability of the structure present, although the technique cannot give information regarding the number of monomers making up the coiled-coil structure. […] Importantly, these peptides shown only have 4.5 leucine zipper heptads, and the incomplete nature of the final heptad is likely to compromise the stability of the coiled-coil structure.

PKA [4] = test: FRET report of phosphorylation of labeled peptides by PKA; format: biochemical; conditions: Zip4SF with Zip4SR, ATP present
Procedure: Donor and acceptor fluorophore-labeled polypeptides comprising coiled-coils (molar equivalents of fluorophore-labeled polypeptide or molar excess of acceptor-labeled polypeptide) are first mixed (if the two coiled-coils are present on separate polypeptides). Samples are analyzed in a fluorimeter using excitation wavelengths relevant to the donor fluorescent moiety and emission wavelengths relevant to both the donor and acceptor moieties. […] Typically, measurements are performed at 0–37° C. as a function of time following the addition of the modifying enzyme (and, optionally, a modulator or candidate modulator of function for that enzyme, as described below) to the system in 50 mM histidine pH 7.0, 120 mM KCl, 5 mM MgSO4, 5 mM NaF, 0.05 mM EGTA and 0.2 mM ATP. The assay may be performed at a higher temperature if that temperature is compatible with the enzyme(s) under study.
(§2) Fluorescence was used to report on the phosphorylation status of these peptides (FIG. 13). […] No loss of FRET was observed on addition of PKA in the absence of ATP (data not shown).
Calculation of the ratio of fluorescence output is important, particularly for in vivo applications, thereby avoiding error due to high local concentrations of reporter in the system and enhancing the ability to observe meaningful change.

partner peptide = test: FRET between fluorescein- and rhodamine-labeled coiled-coil peptides (association); format: binding; conditions: emission at 516 nm
Procedure: Peptides were then labeled using a method adapted from one known in the art (Hermanson, 1997, Bioconjugate Techniques, Academic Press). 20 mM fluorescein iodoacetamide (FAM) in DMSO and 0.23 mM peptide in 20 mM TES buffer, pH 7.0 were prepared. These were mixed in a molar ratio of 0.9:1 (peptide:label) and incubated at 4° C. in the dark for a minimum of 2 hours. Initially, this method was also applied to labelling with rhodamine maleimide at a ratio of 0.9:2; however, in other experiments, good labelling has been obtained using rhodamine iodoacetamide at a ratio of 0.9:1. Labelling was assessed by reverse phase HPLC (C18 column; solvent A: H2O/0.1% TFA; solvent B: acetonitrile/0.1% TFA) and MALDI-TOF mass spectrometry.
This was accompanied by an increase in fluorescence detected in the rhodamine emission region (not shown).
as §2

Zip4SF = biological target: T1, Zip4SF (not fully specified; fluorescent donor label (fluorescein, by analogy with Zip3F) on the single Cys); test: FRET, emission spectra
T1 peptide: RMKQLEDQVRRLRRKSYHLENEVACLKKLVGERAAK

[5] = biological target: the molecule itself; test: circular dichroism, self-association

Molecule: R MKQLEDQ VRRLRRK SYHLENE VACLKKL VGERAAK (RMKQLEDQVRRLRRKSYHLENEVACLKKLVGERAAK) [Zip4S, 28]
- phosphorylation by CaMKII [1]: unable to phosphorylate
- phosphorylation by PKA (extent) (PKA [2]; 0.25 μM PKA): complete phosphorylation
- phosphorylation by PKA (substrate quality, rate) (PKA [2]; 0.5 μM PKA): good substrate

Molecule: R MKQLEDQ VRRLRRK TYHLENE VACLKKL VGERAAK (RMKQLEDQVRRLRRKTYHLENEVACLKKLVGERAAK) [Zip4T, 29]
- relative thermostability (thermal denaturation by CD) ([3]; same conditions as Zip3): more stable than was Zip4S
- phosphorylation by PKA (substrate quality, rate) (PKA [2]; 0.5 μM PKA): slower rate
- time to full phosphorylation by PKA (PKA [2]; 0.5 μM PKA): 30 min

Molecule: Zip4SF: Zip4S labeled with fluorescein (FRET donor) (RMKQLEDQVRRLRRKSYHLENEVACLKKLVGERAAK; also: labeled with fluorescein (site not given here))
- emission at 516 nm on addition of PKA (loss of FRET) (PKA [4]): returned to above the level produced by Zip4SF alone
- FRET upon addition of Zip4SR (partner peptide): loss of emission at 516 nm

Molecule: Zip4SP: enzymatically phosphorylated Zip4S (RMKQLEDQVRRLRRKSYHLENEVACLKKLVGERAAK; also: enzymatically phosphorylated (site not given here))
- folding state in thermal melting/denaturation (ellipticity at 222 nm) ([3]; from starting temperature of 1° C.): unfolded polypeptide in solution

B1: Zip4SR (peptide)
peptide: RMKQLEDQVRRLRRKSYHLENEVAC(rhodamine)LKKLVGERAAK
modifications: reading uncertain
notes: the labelling of Zip4S itself is not spelled out
- binding result (Zip4SF): binds

B2: Zip 2 (peptide)
peptide: RRIRRASIDKVEELKSKNYCLENEVARLKKLVGER
notes: Initial unsuccessful reporter peptide; also called Zip2s
- binding result [5]: binds

Molecule: HMKQLEDKVEELLSKNYCLENEVRRLRRASFSLQ (Initial unsuccessful reporter peptide) [Zip 1]
- binding result [5]: binds
